Results published in patent US11155576B2, “Synthetic peptides, enzymatic formation of pericellular hydrogels/nanofibrils, and methods of use” (BRANDEIS UNIVERSITY, priority 2014, dated 2021).
Entries after “also recorded” stand apart in the source; their conditions may differ. Square brackets hold non-standard residues; d marks the D form. Peptide text beside a SMILES is read from it. * marks the point of attachment. ξ: configuration not given here. d(pY) = N[C@H](Cc1ccc(OP(=O)(O)O)cc1)C(=O)O; NBD = O=[N+]([O-])c1ccc(*)c2nonc12; ξ2Nal = NC(Cc1ccc2ccccc2c1)C(=O)O; βAla = NCCC(=O)O

Columns and labels:
HeLa cells [1] = experiment: LC-MS composition of pericellular hydrogel/nanofibrils and suspension medium of HeLa cells; assay type: in vitro ADME, human; settings: HeLa cells incubated with precursor at 560 μM at 37° C. for 12 hours
C3H10T1/2 = experiment: Ectophosphatase imaging of live cells, C3H10T1/2; assay type: cell-based, murine; settings: 500 μM, 24 hour incubation
Protocol: (§1) FIGS. 18A-H show imaging and ectophosphatase quantification of live cells incubated with D3-a. FIGS. 18A-F show confocal microscopy images. […] The scale bar is […]. The images in FIG. 18B show the time course of fluorescence on HeLa cells incubated with D3-a for 30 minutes, 1 hour, 3 hours, and 6 hours, respectively. Nuclei were stained with Hoechst 33342. FIG. 18C is a 3D stacked z-scan image of fluorescence on HeLa cells treated with D-3a for 6 hours. […] Scale bar: 100 μm for FIG. 18B, upper panels and FIG. 18D; 10 μm for FIG. 18B, lower panels, FIG. 18E, and FIG. 18F. [D-3a]=500 μM for enhancing spatiotemporal resolution. […] FIG. 18H is a plot of time versus the fluorescence of pericellular nanofibrils on HeLa cells treated with D-3a. The initial cell number is 5,000 cells/well. All the confocal microscope images were taken after removing the medium with D-3a and then adding the live cell image solution (Invitrogen Life Technologies A14291DJ). [D3-a]=500 μM for FIGS. 18G-H.
(§2) To validate D-3a as an effective agent for the detection of phosphatase activity on a wide variety of cells, the cellular ectophosphatase activity of various cell lines, including PC-12, Capan-2, A375, Ect1/E6E7, and C3H10T1/2, was evaluated following 24 hour incubation of cells with 500 μM D-3a (FIG. 18A).

HeLa cells [2] = experiment: Fluorescence imaging of HeLa/HS-5 co-culture, HeLa; assay type: cell-based, human; settings: co-culture of HeLa and HS-5, 500 μM, 6 and 24 hours
Excerpt: (§3) FIGS. 17A-C illustrates that phosphatases catalyze self-assembly to form fluorescent nanofibrils with high spatiotemporal resolution. FIG. 17A is an illustration of phosphatase-catalyzed spatiotemporal formation of fluorescent pericellular nanofibrils in co-culture mimicking tumor microenvironment. […] ALP or tyrosine phosphatase (“PTP”) converts D-3a to D-3b, which self-assembles in physiological condition to form fluorescent nanofibrils of D-3b. FIG. 17C contains a pair of fluorescent images showing that the fluorescent nanofibrils of D-3b selectively form on HeLa cells (the cancer cell, identified by arrows) and […] (the stromal cell, indicated by the arrow heads) in the co-culture of HeLa and HS-5. [D-3a]=500 μM, 6 hours (left panel) and 24 hours (right panel) incubation (scale bar=10 μm, the nuclei stained by Hoechst 33342, a DNA dye for live cells).
(§4) Co-culture of cancer cell (i.e., HeLa cells) and stromal cells (i.e., HS-5 cells) mimics the tumor microenvironment (Straussman et al., Nature 487:500-U118 (2012), which is hereby incorporated by reference in its entirety). […] This approach also offers a method for the visualization of live cells that express ectophosphatases.

[3] = tested on: Alkaline-phosphatase (“ALP”); settings: D-3a; ALP (2 U/ml) in FIG. 38B
Excerpt: […] Scale bar=100 nm.
Napthalene capped tripeptide precursor molecule D-2a and hydrogelator molecule D-2b, synthesized according to Yang et al. (Small 3:558-562 (2007), which is hereby incorporated by reference in its entirety), are comprised of the tripeptide D-Phe-D-Phe-D-Tyr (FIG. 1B). The D-Tyr of D-2a is phosphorylated (FIG. 1B).

HeLa cells [4] = experiment: Ectophosphatase imaging of live cells, HeLa time course; assay type: cell-based, human
Protocol: as §1
To investigate the spatiotemporal resolution of D-3a fluorescence, HeLa cells were incubated with 500 μM D-3a for varying amounts of time (30 minutes, 1 hour, 3 hours, and 6 hours, respectively) and imaged by confocal microscopy (FIG. 18B). […] Quantification of ectophosphatase activity on the surface of HeLa cells treated with 500 μM of D-3a is shown in FIGS. 18G-18H as a function of cell number or time, respectively.

A375 = experiment: Ectophosphatase imaging of live cells, A375; assay type: cell-based, human; settings: 500 μM, 24 hour incubation
Protocol: as §1, §2

Capan-2 = experiment: Ectophosphatase imaging of live cells, Capan-2; assay type: cell-based, human; settings: 500 μM, 24 hour incubation
Protocol: as §1, §2

HS-5 cells = experiment: Fluorescence imaging of HeLa/HS-5 co-culture, HS-5; assay type: cell-based; settings: co-culture of HeLa and HS-5, 500 μM, 6 and 24 hours
Excerpt: as §3, §4

PC-12 Adh = experiment: Ectophosphatase imaging of live cells, PC-12 Adh; assay type: cell-based, rat; settings: 500 μM, 24 hour incubation
Protocol: as §1, §2

Ect1/E6E7 = experiment: Ectophosphatase imaging of live cells, Ect1/E6E7; assay type: cell-based, human; settings: 500 μM, 24 hour incubation
Protocol: as §1, §2

HeLa cells [5] = experiment: Pericellular hydrogelation on HeLa cells (optical images); assay type: cell-based, human; settings: 560 μM, 2 hours at 37° C.
Protocol: An 11.2 mM (8.09 mg/mL) stock solution of D-2a was prepared in ddH2O. The pH was adjusted to 7.4 using 1N NaOH. 2×10^5 cells in exponential growth phase were seeded in 35 mm Petri dish with 1 mL complete culture medium. Following overnight incubation, the medium was replaced with 1 mL of medium containing D-2a (diluted from the stock solution immediately prior to use). Petri dishes were incubated at 37° C. for two hours. Next, dishes were removed from the incubator and titled on a bench to visualize the pericellular hydrogel. Prior to co-incubation with phosphatase inhibitors, cells were washed three times with medium containing Pierce phosphatase inhibitor cocktail (Thermo) (contains sodium floride, sodium orthovanadate, sodium pyrophosphate, and beta-glycerophosphate). Next, 1 mL of medium containing both the inhibitor cocktail and D-2a was applied to the cells.

HeLa cells [6] = experiment: Cell adhesion assay; assay type: cell-based, human; settings: 560 μM, trypsinized HeLa cells, at 4 hours
Protocol: Cells in exponential growth phase were detached using 0.25% trypsin-EDTA. After neutralizing trypsin by addition of complete culture medium, the cells were collected by centrifuge (1000 rpm, 3 min). The cell pellet was suspended by addition of culture medium to a concentration of 4×10^5 cells/mL. 1 mL of the cell suspension was mixed with 1 mL of 2×D-2a or D-2b containing culture media. The resulting solutions were added into 96 well plate at 100 μL/well. After the desired time of incubation at 37° C., 5% CO2, the solution was gently removed, and then 100 μL of culture medium and 10 μL of 5 mg/mL MTT were added to each well. Following 4 hour incubation in the dark, 100 μL of 10% SDS with 0.01M HCl was added to each well to stop the reduction reaction and to dissolve the purple. After incubation of the cells at 37° C. for overnight, the viability was measured. Data represent the mean±standard deviation of three independent experiments.

HeLa cells [7] = experiment: Cell viability assay (MTT), HeLa; assay type: cell-based, human; settings: 280 μM, direct addition
Protocol: Cells in exponential growth phase were seeded in a 96 well plate at a concentration of 2×10^4 cells/well. The cells were allowed to attach to the wells for 24 hours at 37° C., 5% CO2. The culture medium was removed and 100 μL culture medium containing compounds (immediately diluted from fresh prepared stock solution of 10 mM) at gradient concentrations (0 μM as the control) was placed into each well. After culturing at 37° C., 5% CO2 for 48 hours, each well was added by 10 μL of 5 mg/mL MTT (3-(4,5-dimethylthiazoL-2-yl)-2,5-diphenyltetrazolium bromide), and the plated cells were incubated in the dark for 4 hours. 100 μL 10% SDS with 0.01M HCl was added to each well to stop the reduction reaction and to dissolve the purple. After overnight incubation of the cells at 37° C., the OD at 595 nm of the solution was measured in a microplate reader. Data represent the mean±standard deviation of three independent experiments.

[8] = tested on: secretory phosphatases present in HeLa cell conditioned medium; experiment: Hydrogelation in HeLa cell conditioned medium; assay type: biochemical, human; settings: 560 μM, 48 hours
Protocol: 2×10^5 of cells in exponential growth phase were seeded in a 35 mm Petri dish with 1 mL complete culture medium. Following overnight incubation, 1 mL of new medium was replaced and incubated for 24 h at 5% CO2, 37° C. The medium was next removed and centrifuged at 10,000 rpm for 5 minutes. The suspension was placed into a 1.5 mL Eppendorf® tube and stored at −20° C. Stored conditioned medium was thawed and warmed to 37° C. in water bath immediately before use.
HeLa cell conditioned medium (“CM”) dephosphorylates D-2a to form D-2b nanofibrils.

Molecule: O=C(Cc1ccc2ccccc2c1)N[C@@H](Cc1ccccc1)C(=O)N[C@@H](Cc1ccccc1)C(=O)N[C@@H](Cc1ccc(OP(=O)(O)O)cc1)C(=O)O [L-2a]
- L-2b in suspension medium (HeLa cells [1]): 176.6 µM
- L-3 in suspension medium (HeLa cells [1]): 270.4 µM

Molecule: O=C(CCNc1ccc([N+](=O)[O-])c2nonc12)NC(Cc1ccc2ccccc2c1)C(=O)N[C@H](Cc1ccccc1)C(=O)N[C@H](Cc1ccccc1)C(=O)N[C@H](Cc1ccc(OP(=O)(O)O)cc1)C(=O)O (stereo partly drawn) [D-3a, NBD-D-Nal-D-Phe-D-Phe-D-pTyr] ({NBD-βAla}-[ξ2Nal][dF][dF][d(pY)]-OH)
- NBD fluorescence (C3H10T1/2): sporadic fluorescence on cell surface
- NBD fluorescence on cancer cells in co-culture (HeLa cells [2]): selective formation of bright yellow (NBD) fluorescence on the surface of the cancer cells
- Hydrogel formation after phosphatase-catalyzed dephosphorylation [3]: self-assembles to form the fluorescent nanonets/hydrogel
- Cell surface fluorescence over time (HeLa cells [4]; 500 μM, 30 minutes, 1 hour, 3 hours, 6 hours): increased cell surface fluorescence with time
- Fluorescence after re-incubation in fresh medium (HeLa cells [4]; 6 hour incubation with D-3a, then fresh medium for 24 hours): only nuclear dye fluorescence
- NBD fluorescence (A375): no fluorescence
- NBD fluorescence (Capan-2): weak
- NBD fluorescence on stromal cells in co-culture (HS-5 cells): only yellow puncta are observed inside the HS-5 stromal cells
- Cell surface exhibiting NBD fluorescence (PC-12 Adh): more than 50%
- NBD fluorescence (Ect1/E6E7): strong fluorescence in the cytosol

Molecule: Nap-D-Phe-D-Phe-D-Tyr [D-2b]
- Pericellular hydrogel formation on HeLa cells (HeLa cells [5]): hardly any hydrogelation; also recorded: does not form pericellular hydrogels
- Cells reattached to surface (HeLa cells [6]): > 80%
- Growth inhibition of HeLa cells (HeLa cells [7]): hardly inhibits the growth
- Hydrogel formation in HeLa cell conditioned medium [8]: fails to form a hydrogel
